Test results published in US10758536B2, “Method for treating shingles with N-methanocarbathymidine (N-MCT)” (priority 2015, dated 2020).

What was measured:
VZV [1] = experiment: SCID-Hu mouse model of VZV replication, oral dose range; type: in vivo, varicella-zoster virus; settings: all doses, N-MCT 5-100 mg/kg/day BID; p<0.0001, ANOVA and Dunnett
Procedure: SCID-hu mice with human skin xenografts were infected intradermally with VZV and treated orally twice daily with vehicle, PFA (positive control), or N-MCT at 5, 10, 20, 25, 50, or 100 mg/kg/day. Virus spread was measured daily by in vivo bioluminescence imaging (IVIS). […] The results were analyzed for statistical significance by ANOVA and Dunnett's post hoc test of multiple comparisons (GraphPad Prism).

VZV [2] = experiment: Skin organ culture topical Assay 1: dose dependence (carbopol gel); type: cell-based, varicella-zoster virus
Procedure: (§1) Place 36 mL deionized sterile water into small beaker with stir bar. Slowly waft 900 mg of carbopol (980 NF, Lot # CCONLCC013, Lubrizol Corp) into water, avoiding clumps. Add equal volume N-MCT in 20% hydroxypropyl-β-cyclodextrin (Sigma) at 2× to reach the desired concentration. Add 2 drops NaOH (18% solution) to attain a pH near 5.0. Store at 4° C. The 0.5% cidofovir gel was made in a similar manner except that cidofovir was dissolved in water. The DMSO vehicle was prepared by adding a 2% DMSO solution in water to the carbopol suspension at a 1:1 ratio. Hydroxypropyl-β-cyclodextrin (HPBCD) was prepared by mixing 5.0 g with 20 mL sterile water. Stock solution of N-MCT was prepared by dissolving 90 mg N-MCT in 9 mL 20% HPBCD and sonicating for 1 min.
A skin organ culture model was used to evaluate N-MCT as a topical treatment for VZV. Human skin explants were inoculated with VZV by scarification and treated daily from 1-4 days post infection with N-MCT (0.05, 0.5, or 5%) or cidofovir (0.5%, positive control) in a carbopol gel.
(§2) Human fetal skin was purchased from ABR and delivered by overnight courier on wet ice. The tissue was cleaned, disinfected in betadine and 70% ethanol, then cut into pieces approximately 1-cm^2. Each piece was inoculated with VZV-BAC-Luc strain that expresses firefly luciferase. Approximately 3 hours after inoculation, the pieces of skin were placed in NetWells above tissue culture medium and incubated overnight. The next day (Day 1) each piece of skin was soaked in D-luciferin for 45 min, and then scanned in the IVIS-50 instrument to measure Total Flux, which is a correlate of VZV pfu. The drug treatment began on Day 1 or later by spreading an aqueous gel (carbopol) containing N-MCT at concentrations of 0.05, 0.5, or 5% (see Assay 1 in Table 4 below). One group of skin was treated with cidofovir ([…] in carbopol gel) for a positive control. Each group contained 4-6 pieces of skin. The drug was applied daily until Day 5 (or other intervals), and then the skin pieces were scanned by IVIS to determine virus yield. […] The results were analyzed for statistical significance by ANOVA and Dunnett's post hoc test of multiple comparisons (GraphPad Prism).

VZV [3] = experiment: Skin organ culture topical Assay 2: delayed treatment; type: cell-based, varicella-zoster virus
Procedure: as §1, §2
This assay differs from Assay 1 in that the Vehicle was prepared with 10% HPBCD, which is the solvent for the N-MCT. Refer to Assay #2 in Table 4 above. Three groups were treated on Days 1-4 and scanned on Day 5, which is the typical assay protocol. Two groups were treated after a delay of several days, which more closely reflects a clinical scenario of zoster. All treated groups received the same preparation of 0.5% N-MCT in carbopol with 10% HPBCD. VZV yield was reduced in the Vehicle group during the treatment phase, and then rebounded. This was likely due to the effects of HPBCD, which has known antiviral properties. […] In contrast, VZV yield increased until Day 5 in the group that received no treatment until after this scan. The difference between this group and the Vehicle group was notable, since they were expected to be similar.

SMILES: O=C(O)P(=O)(O)O [PFA, phosphonoformic acid, reference compound]
- VZV yield and growth rates compared to vehicle (VZV [1]): significantly reduced

SMILES: Nc1ccn(C[C@@H](CO)OCP(=O)(O)O)c(=O)n1 [cidofovir, reference compound]
- VZV yield compared to vehicle (VZV [2]; N-MCT 0.05, 0.5, 5% or cidofovir in carbopol gel, daily, p<0.0004): significantly reduced
- VZV replication in skin explants, topical gel (VZV [2]; N-MCT 0.05-5%, cidofovir 0.5% in carbopol gel): prevented VZV replication
- reduction of virus yield compared to the vehicle group (VZV [2]; all concentrations, topical carbopol gel, p=0.0004): approximately 100 fold
- VZV yield, treatment on Days 1-4 (VZV [3]; 0.5% in carbopol QD 1-4 dpi, during and after treatment): dramatically reduced

SMILES: CC(O)COC[C@H]1O[C@@H]2O[C@H]3[C@H](O)[C@@H](O)[C@@H](O[C@H]4[C@H](O)[C@@H](O)[C@@H](O[C@H]5[C@H](O)[C@@H](O)[C@@H](O[C@H]6[C@H](O)[C@@H](O)[C@@H](O[C@H]7[C@H](O)[C@@H](O)[C@@H](O[C@H]8[C@H](O)[C@@H](O)[C@@H](O[C@H]1[C@H](O)[C@H]2O)O[C@@H]8COCC(C)O)O[C@@H]7COCC(C)O)O[C@@H]6COCC(C)O)O[C@@H]5COCC(C)O)O[C@@H]4COCC(C)O)O[C@@H]3COCC(C)O (stereo partly drawn) [hydroxypropyl-β-cyclodextrin]
- antiviral effect on VZV in skin organ culture (VZV [3]; 10% in carbopol, no drug): moderate antiviral effect
